The IC50 is the concentration at which inhibition is half-maximal. A low value points to greater potency.

Assay [1] addresses T1, Proto-oncogene tyrosine-protein kinase receptor Ret (Homo sapiens, UniProt P07949). Put plainly: Inhibition of human RET kinase cytoplasmic domain by Time-Resolved fluorescence reader assay.
The target of assay [2] is T1, Proto-oncogene tyrosine-protein kinase receptor Ret. The assay is described as follows: Inhibition of human RET kinase in TT cells by TRET Kinase cell-based mechanistic assay.

T1 sequence (P07949 whole entry, the tested form may be a part): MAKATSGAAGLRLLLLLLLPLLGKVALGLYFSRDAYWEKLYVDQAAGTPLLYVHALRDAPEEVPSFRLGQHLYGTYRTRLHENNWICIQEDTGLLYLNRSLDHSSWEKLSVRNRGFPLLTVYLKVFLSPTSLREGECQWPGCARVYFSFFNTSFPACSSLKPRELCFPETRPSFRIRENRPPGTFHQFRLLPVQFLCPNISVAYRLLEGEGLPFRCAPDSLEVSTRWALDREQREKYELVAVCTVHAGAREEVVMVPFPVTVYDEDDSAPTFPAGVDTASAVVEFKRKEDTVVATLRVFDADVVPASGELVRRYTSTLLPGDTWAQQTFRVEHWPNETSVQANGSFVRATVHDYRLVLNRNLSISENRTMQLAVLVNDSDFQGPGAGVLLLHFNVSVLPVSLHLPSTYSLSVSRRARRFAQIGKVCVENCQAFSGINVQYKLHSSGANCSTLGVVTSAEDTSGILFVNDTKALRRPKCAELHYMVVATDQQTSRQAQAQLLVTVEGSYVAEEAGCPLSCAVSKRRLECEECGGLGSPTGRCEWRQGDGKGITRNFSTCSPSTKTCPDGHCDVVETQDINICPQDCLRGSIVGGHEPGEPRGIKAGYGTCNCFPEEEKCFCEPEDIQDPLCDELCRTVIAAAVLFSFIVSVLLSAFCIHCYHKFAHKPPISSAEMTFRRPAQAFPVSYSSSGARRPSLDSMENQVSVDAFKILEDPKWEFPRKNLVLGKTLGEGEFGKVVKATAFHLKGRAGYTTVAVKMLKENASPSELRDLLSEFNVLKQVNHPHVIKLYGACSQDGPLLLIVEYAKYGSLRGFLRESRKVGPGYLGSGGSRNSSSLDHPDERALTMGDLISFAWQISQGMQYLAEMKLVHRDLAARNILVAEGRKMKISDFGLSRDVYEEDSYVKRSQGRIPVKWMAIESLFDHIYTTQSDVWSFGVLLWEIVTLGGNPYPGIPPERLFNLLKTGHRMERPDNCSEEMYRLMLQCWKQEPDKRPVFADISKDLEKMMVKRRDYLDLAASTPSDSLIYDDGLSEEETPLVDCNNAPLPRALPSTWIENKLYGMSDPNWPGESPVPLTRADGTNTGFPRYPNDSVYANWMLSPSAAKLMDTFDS

Consider `CCOc1cc(-c2ccc(CC(=O)Nc3ccc(Cl)c(Cl)c3)c(F)c2)c[nH]c1=O`, for which the IC50 in assay [1] is no less than 100 nM; in assay [2], greater than 500 nM.

The values are drawn from ChEMBL document CHEMBL3352525, “RET Kinase Inhibitors May Treat Cancer and Gastrointestinal Disorders” (ACS Med Chem Lett, 2015).
